Reference: PubChem BioAssay (NCI)
Values joined by “and” are separate entries in the source; they are usually repeats but may differ in a detail not shown here. Identical values can stand only once.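 96-well plates; 48 h exposure; 5 concentrations. Endpoints by linear interpolation between flanking doses. Not reached: highest tested concentration assigned. GI50: concentration for 50% inhibition of growth. At the TGI there is no net growth.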

What was measured:
Assay in all cases: inhibition of tumour cell growth, NCI panel, 48 h
[1] = tested on: 786-0 renal
[2] = tested on: CCRF-CEM leukemia
[3] = tested on: DU-145 prostate
[4] = tested on: EKVX NSCLC
[5] = tested on: KM12 colon
[6] = tested on: LOX IMVI melanoma
[7] = tested on: RXF 393 renal
[8] = tested on: SK-MEL-5 melanoma
[9] = tested on: SN12C renal
[10] = tested on: SNB-19 CNS

SMILES	GI50 [1]	TGI [1]	GI50 [2]	TGI [2]	GI50 [3]	TGI [3]	GI50 [4]	TGI [4]	GI50 [5]	TGI [5]	GI50 [6]	TGI [6]	GI50 [7]	TGI [7]	GI50 [8]	TGI [8]	GI50 [9]	TGI [9]	GI50 [10]	TGI [10]
COC(=O)c1sc(=S)c2sc(C(=O)OC)c(C(=O)OC)c2c1C(=O)OC	89400 nM	> 100 µM	30800 nM	80.1 µM	71100 nM	> 100 µM	89.9 µM	> 100 µM	36400 nM	> 100 µM	46300 nM	> 100 µM	41700 nM	> 100 µM	39.1 µM	> 100 µM	30700 nM	> 100 µM	86.7 µM	> 100 µM
O=[N+]([O-])/C(=C/C=C/c1ccccc1)c1ccccc1	1810 nM	3.4 µM	764 nM	2.39 µM	1760 nM	3.22 µM	6.03 µM	16.3 µM	2040 nM	4.29 µM	1670 nM	3.29 µM	1810 nM	3.84 µM	3.16 µM	12.1 µM	1850 nM	4.03 µM	3.33 µM	10.6 µM
c1ccc2[nH]c(-c3cscn3)nc2c1		> 100 µM		> 100 µM		> 100 µM		> 100 µM		> 100 µM		> 100 µM	> 100000 nM and 49100 nM	> 100 µM		> 100 µM		> 100 µM		> 100 µM
CN1CCC(C(=O)Nc2n[nH]c3nnc(-c4ccccc4)cc23)CC1	> 25000 nM	> 25 µM	> 25000 nM	> 25 µM	> 25000 nM	> 25 µM	> 25 µM	> 25 µM	19400 nM	> 25 µM	20300 nM	> 25 µM	12300 nM	> 25 µM	14.6 µM	> 25 µM	> 25000 nM	> 25 µM	> 25 µM	> 25 µM
Cc1nc2sc(C(=O)Nc3cccc(Cl)c3)c(N)c2cc1C(O)c1ccccc1 (configuration not stated)	2470 nM	20.7 µM	483 nM	> 100 µM	923 nM	17.2 µM	3.39 µM	26.1 µM	577 nM	24.5 µM	687 nM	22.5 µM	722 nM	11.5 µM	0.622 µM	2.2 µM	976 nM	13.6 µM	2.33 µM	20.3 µM
CCCC/C=C1/CCC(CN(C)C)C1=O (configuration not stated)		2.9 µM	424 nM	1.76 µM		28.9 µM	2.14 µM	4.48 µM		2.31 µM		2.91 µM		3.38 µM		22 µM		3.63 µM		12.3 µM
O=c1ccc(=O)c2c1c1[nH]c3ccccc3c1c1c(=O)c3ccccc3c(=O)c21		> 10 µM		> 10 µM		> 10 µM		> 10 µM		> 10 µM		> 10 µM		> 10 µM		> 10 µM		> 10 µM		> 10 µM
COc1ccc([C@H]2c3[nH]c4ccccc4c3C[C@H]3C(=O)N(CCCCCCC(=O)NO)CC(=O)N23)cc1	11000 nM	> 33.3 µM	1480 nM	> 33.3 µM	1830 nM	> 33.3 µM	13.4 µM	> 33.3 µM	2730 nM	> 33.3 µM	1540 nM	5.91 µM	1330 nM	6.12 µM	1.89 µM	6.89 µM	4190 nM	> 33.3 µM	4.34 µM	> 33.3 µM
CC(=O)O[C@H]1C(=O)[C@@]2(C)C([C@H](OC(=O)c3ccccc3)[C@]3(O)C[C@H](OC(=O)[C@H](O)[C@@H](NC(=O)c4ccc(Cl)cc4)c4ccccc4)C(C)=C1C3(C)C)C1(OC(C)=O)CO[C@@H]1C[C@@H]2O (some centres not stated)	45 nM	3.09 µM and 29.7 µM		52.2 µM		0.452 µM	1.11 µM	25 µM and > 100 µM		25 µM		49.6 µM	157 nM			13.5 µM	16.6 nM	25 µM and 83.2 µM	0.0849 µM	25 µM and > 100 µM
